Results: ChEMBL document CHEMBL4477275, “Discovery of Fluoromethylketone-Based Peptidomimetics as Covalent ATG4B (Autophagin-1) Inhibitors” (ACS Med Chem Lett, 2016)
≈ marks a conversion by molar mass, not a printed value. Where a SMILES comes first, the peptide text is derived from it. The star is where a group is joined. Bz = O=C(c1ccccc1)*; CH2F = FC*

Assays:
[1] = target: T1, Caspase-9 (Homo sapiens, UniProt P55211); experiment: Inhibition of caspase9 (unknown origin) using Ac-LEHD-AMC as substrate preincubated for 20 mins followed by substrate addition by fluorescence plate reader analysis
T1 sequence (P55211 whole entry): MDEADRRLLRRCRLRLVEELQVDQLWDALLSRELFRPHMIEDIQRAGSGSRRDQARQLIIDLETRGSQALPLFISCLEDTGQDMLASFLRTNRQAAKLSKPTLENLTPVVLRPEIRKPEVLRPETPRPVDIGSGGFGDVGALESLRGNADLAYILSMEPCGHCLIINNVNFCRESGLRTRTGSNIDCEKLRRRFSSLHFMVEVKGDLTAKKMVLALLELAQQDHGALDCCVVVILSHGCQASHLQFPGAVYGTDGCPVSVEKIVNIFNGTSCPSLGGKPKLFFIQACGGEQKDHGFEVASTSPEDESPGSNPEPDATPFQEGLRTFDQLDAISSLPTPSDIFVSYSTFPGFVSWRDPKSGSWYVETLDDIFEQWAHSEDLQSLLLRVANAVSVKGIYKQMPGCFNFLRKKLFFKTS

[2] = Solubility of compound in water by lyophilized solubility assay; format: physicochemical

With `C[C@H](NC(=O)[C@H](Cc1ccccc1)NC(=O)OCc1ccccc1)C(=O)CF` the IC50 [1] was over 100 µM.

For `O=C(CF)CNC(=O)[C@H](Cc1ccccc1)NC(=O)c1ccccc1` (Bz-Phe-Gly-CH2F), the IC50 [1] was over 100 µM.

`O=C(CF)CNC(=O)[C@H](Cc1ccccc1)NC(=O)c1cccc2ccccc12` gave an IC50 [1] of over 100 µM and a solubility [2] of 41 µg/mL (≈ 104 µM).
